Key:
Neutrophil elastase [1] = target: T1, Neutrophil elastase (Homo sapiens, UniProt P08246); assay: Inhibitory concentration which is required to cause 50% inhibition of human leukocyte elastase (HLE) enzyme
T1 sequence (P08246 whole entry): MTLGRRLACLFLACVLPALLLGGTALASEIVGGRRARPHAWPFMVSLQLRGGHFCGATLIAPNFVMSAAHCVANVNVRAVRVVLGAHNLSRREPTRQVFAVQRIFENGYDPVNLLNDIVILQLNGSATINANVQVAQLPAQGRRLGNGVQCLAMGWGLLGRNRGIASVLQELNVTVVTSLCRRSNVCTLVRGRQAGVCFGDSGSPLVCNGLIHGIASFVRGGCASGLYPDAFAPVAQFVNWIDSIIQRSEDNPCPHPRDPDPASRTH

[2] = target: T2, Neutrophil elastase (Homo sapiens) (UniProt P08246); assay: Second-order rate constant (Kobs/[I]) for inactivation was determined
T2 sequence (whole entry): T1 sequence (P08246 whole entry)

[3] = target: T2, Neutrophil elastase (Homo sapiens)
Description: Second-order rate constant (Kobs/[I]) for inactivation of Human Leukocyte Elastase was determined

Serine protease 1 [4] = target: T3, Serine protease 1 (Bos taurus, UniProt P00760); assay: Inhibitory concentration which is required to cause 50% inhibition of Trypsin
T3 sequence (P00760 whole entry): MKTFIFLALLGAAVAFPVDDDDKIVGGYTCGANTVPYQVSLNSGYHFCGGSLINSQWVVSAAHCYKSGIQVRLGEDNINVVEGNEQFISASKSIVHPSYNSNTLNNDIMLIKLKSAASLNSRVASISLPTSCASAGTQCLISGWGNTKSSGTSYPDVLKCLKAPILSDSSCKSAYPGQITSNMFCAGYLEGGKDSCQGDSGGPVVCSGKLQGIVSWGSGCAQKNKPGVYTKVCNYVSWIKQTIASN

Chymotrypsinogen A [5] = target: T4, Chymotrypsinogen A (Bos taurus, UniProt P00766); assay: Inhibitory concentration which is required to cause 50% inhibition of bovine alpha-chymotrypsin (ChT)
Pancreatic elastase [6] = target: T5, Pancreatic elastase (Sus scrofa, UniProt P08419+P00772); assay: Inhibitory concentration which is required to cause 50% inhibition of porcine pancreatic elastase (PPE); type: protein assay
Neutrophil elastase [7] = target: T1, Neutrophil elastase; assay: Inhibitory concentration which is required to cause 50% inhibition of human leukocyte elastase (HLE) enzyme; NVT indicates nonvalid test
Serine protease 1 [8] = target: T3, Serine protease 1; assay: Inhibitory concentration which is required to cause 50% inhibition of bovine trypsin (Trp)
Chymotrypsinogen A [9] = target: T4, Chymotrypsinogen A; assay: Inhibitory concentration which is required to cause 50% inhibition of alpha-chymotrypsin enzyme
Pancreatic elastase [10] = target: T5, Pancreatic elastase; assay: Inhibitory concentration which is required to cause 50% inhibition of Porcine pancreatic elastase (PPE) enzyme; type: protein assay

CC(=O)OCC1=C(C(=O)OC(C)(C)C)N2C(=O)[C@H](F)[C@H]2SC1
IC50 (Neutrophil elastase [1]): 20 µM

CC(=O)OCC1=C(C(=O)OC(C)(C)C)N2C(=O)[C@@H](NC(=O)Cc3cccs3)[C@H]2S(=O)(=O)C1
IC50 (Neutrophil elastase [1]): > 40 µM

CCO[C@H]1C(=O)N2C(C(=O)OC(C)(C)C)=C(COC(C)=O)C[S+]([O-])[C@H]12 (stereo in doubt; 6b)
IC50 (Neutrophil elastase [1]): 40 µM

CC(=O)OCC1=C(C(=O)OC(C)(C)C)N2C(=O)[C@H](NC=O)[C@H]2S(=O)(=O)C1
IC50 (Neutrophil elastase [1]): 4 µM
K obs / 1 [2]: 1200 M⁻¹ s⁻¹

CC(=O)OCC1=C(C(=O)OC(C)(C)C)N2C(=O)[C@H](Cl)[C@H]2S(=O)(=O)C1
K obs / 1 [3]: 161000 M⁻¹ s⁻¹
IC50 (Neutrophil elastase [1]): 0.04 µM

CCCC[C@H]1C(=O)N2C(C(=O)OC(C)(C)C)=C(COC(C)=O)CS(=O)(=O)[C@H]12
IC50 (Neutrophil elastase [1]): 40 µM

CCCCO[C@H]1C(=O)N2C(C(=O)OC(C)(C)C)=C(COC(C)=O)CS(=O)(=O)[C@H]12
IC50 (Neutrophil elastase [1]): > 40 µM

COC(=O)N[C@H]1C(=O)N2C(C(=O)OC(C)(C)C)=C(COC(C)=O)CS(=O)(=O)[C@H]12
IC50 (Neutrophil elastase [1]): 4 µM
K obs / 1 [2]: 1600 M⁻¹ s⁻¹

CO[C@H]1C(=O)N2C(C(=O)OC(C)(C)C)=C(COC(C)=O)CS(=O)(=O)[C@H]12
K obs / 1 [3]: 19000 M⁻¹ s⁻¹
IC50 (Neutrophil elastase [1]): 1 µM

CCO[C@H]1C(=O)N2C(C(=O)OC(C)(C)C)=C(COC(C)=O)C[S+]([O-])[C@H]12 (stereo in doubt; 7b)
IC50 (Neutrophil elastase [1]): > 40 µM

CC(=O)OCC1=C(C(=O)OC(C)(C)C)N2C(=O)C[C@H]2S(=O)(=O)C1
IC50 (Neutrophil elastase [1]): > 40 µM

CNC(=O)O[C@H]1C(=O)N2C(C(=O)OC(C)(C)C)=C(COC(C)=O)CS(=O)(=O)[C@H]12
K obs / 1 [3]: 180 M⁻¹ s⁻¹
IC50 (Neutrophil elastase [1]): 1 µM

CCC(C)O[C@H]1C(=O)N2C(C(=O)OC(C)(C)C)=C(COC(C)=O)CS[C@H]12 (some centres undefined)
IC50 (Neutrophil elastase [1]): > 40 µM

CCCCO[C@H]1C(=O)N2C(C(=O)OC(C)(C)C)=C(COC(C)=O)CS[C@H]12
IC50 (Neutrophil elastase [1]): > 40 µM

CCC(=O)O[C@H]1C(=O)N2C(C(=O)OC(C)(C)C)=C(COC(C)=O)CS(=O)(=O)[C@H]12
K obs / 1 [3]: 80 M⁻¹ s⁻¹
IC50 (Neutrophil elastase [1]): 10 µM

CO[C@@H]1C(=O)N2C(C(=O)OC(C)(C)C)=C(COC(C)=O)CS(=O)(=O)[C@H]12
IC50 (Neutrophil elastase [1]): > 40 µM

CCC(=O)O[C@H]1C(=O)N2C(C(=O)OC(C)(C)C)=C(COC(C)=O)CS[C@H]12
IC50 (Neutrophil elastase [1]): 36 µM

CC(=O)OCC1=C(C(=O)OC(C)(C)C)N2C(=O)[C@H](OCCc3ccccc3)[C@H]2S(=O)(=O)C1
IC50 (Neutrophil elastase [1]): 5 µM

CCC(CC)O[C@H]1C(=O)N2C(C(=O)OC(C)(C)C)=C(COC(C)=O)CS(=O)(=O)[C@H]12
IC50 (Neutrophil elastase [1]): > 40 µM

CC(=O)OCC1=C(C(=O)OC(C)(C)C)N2C(=O)[C@H](OCc3ccccc3)[C@H]2S(=O)(=O)C1
IC50 (Neutrophil elastase [1]): > 10 µM

CC(=O)OCC1=C(C(=O)OC(C)(C)C)N2C(=O)[C@H](Oc3ccccc3)[C@H]2S(=O)(=O)C1
K obs / 1 [3]: 720 M⁻¹ s⁻¹
IC50 (Neutrophil elastase [1]): 1 µM

CC(=O)OCC1=C(C(=O)OC(C)(C)C)N2C(=O)[C@H](Cl)[C@H]2SC1
IC50 (Neutrophil elastase [1]): 2 µM

CC(=O)OCC1=C(C(=O)OC(C)(C)C)N2C(=O)[C@H](OC(C)=O)[C@H]2S(=O)(=O)C1
K obs / 1 [3]: 950 M⁻¹ s⁻¹
IC50 (Neutrophil elastase [1]): 6 µM
IC50 (Serine protease 1 [4]): > 40 µM
IC50 (Chymotrypsinogen A [5]): > 40 µM
IC50 (Pancreatic elastase [6]): 2 µM

CO[C@H]1C(=O)N2C(C(=O)OC(C)(C)C)=C(COC(C)=O)C[S@+]([O-])[C@H]12
IC50 (Neutrophil elastase [1]): 4 µM
K obs / 1 [2]: 500 M⁻¹ s⁻¹

CCCO[C@H]1C(=O)N2C(C(=O)OC(C)(C)C)=C(COC(C)=O)CS[C@H]12
IC50 (Neutrophil elastase [1]): > 40 µM

CC(=O)OCC1=C(C(=O)OC(C)(C)C)N2C(=O)[C@@H](N)[C@H]2SC1
IC50 (Neutrophil elastase [1]): > 40 µM

O=C(OCc1ccccc1)[C@H]1/C(=C/CO)O[C@@H]2CC(=O)N21
IC50 (Neutrophil elastase [1]): 4 µM

CCC(C)O[C@H]1C(=O)N2C(C(=O)OC(C)(C)C)=C(COC(C)=O)CS(=O)(=O)[C@H]12 (some centres undefined)
IC50 (Neutrophil elastase [1]): 28 µM

CC(=O)OCC1=C(C(=O)OC(C)(C)C)N2C(=O)[C@H](F)[C@H]2S(=O)(=O)C1
IC50 (Neutrophil elastase [1]): 0.06 µM

CC(=O)OCC1=C(C(=O)OC(C)(C)C)N2C(=O)[C@H](NC(=O)C(F)(F)F)[C@H]2S(=O)(=O)C1
IC50 (Neutrophil elastase [1]): 2 µM

CC(=O)OCC1=C(C(=O)OC(C)(C)C)N2C(=O)[C@H](NC(=O)Cc3cccs3)[C@H]2S(=O)(=O)C1
IC50 (Neutrophil elastase [1]): > 40 µM

CO[C@H]1C(=O)N2C(C(=O)OC(C)(C)C)=C(COC(C)=O)CS[C@H]12
IC50 (Neutrophil elastase [1]): 10 µM

CCO[C@H]1C(=O)N2C(C(=O)OC(C)(C)C)=C(COC(C)=O)CS[C@H]12
IC50 (Neutrophil elastase [1]): > 40 µM

CC(=O)OCC1=C(C(=O)OC(C)(C)C)N2C(=O)[C@H](OS(=O)(=O)c3ccc(C)cc3)[C@H]2SC1
IC50 (Neutrophil elastase [7]): Non valid test

O=C(O)[C@H]1/C(=C/CO)O[C@@H]2CC(=O)N21 [CLAVULANIC ACID]
IC50 (Neutrophil elastase [1]): < 40 µM

CC(=O)OCC1=C(C(=O)OC(C)(C)C)N2C(=O)[C@H](OC(=O)c3ccccc3)[C@H]2S(=O)(=O)C1
IC50 (Neutrophil elastase [1]): > 40 µM

CC(=O)OCC1=C(C(=O)OC(C)(C)C)N2C(=O)[C@H](OC=O)[C@H]2S(=O)(=O)C1
IC50 (Neutrophil elastase [1]): 0.3 µM
IC50 (Serine protease 1 [8]): > 40 µM
IC50 (Pancreatic elastase [6]): 0.4 µM
K obs / 1 [2]: 59000 M⁻¹ s⁻¹

CO[C@H]1C(=O)N2C(C(=O)OC(C)(C)C)=C(COC(C)=O)C[S@@+]([O-])[C@H]12
IC50 (Neutrophil elastase [1]): > 40 µM

CC(=O)OCC1=C(C(=O)OC(C)(C)C)N2C(=O)[C@H](OC(=O)COc3ccccc3)[C@H]2S(=O)(=O)C1
IC50 (Neutrophil elastase [1]): 6 µM

CC(=O)OCC1=C(C(=O)OC(C)(C)C)N2C(=O)[C@@H](NC(=O)C(F)(F)F)[C@H]2S(=O)(=O)C1
IC50 (Neutrophil elastase [1]): > 40 µM

CC(=O)OCC1=C(C(=O)OC(C)(C)C)N2C(=O)[C@H](OC(=O)Cc3ccccc3)[C@H]2S(=O)(=O)C1
IC50 (Neutrophil elastase [1]): 10 µM
IC50 (Serine protease 1 [4]): > 40 µM
IC50 (Chymotrypsinogen A [9]): 4 µM
IC50 (Pancreatic elastase [10]): 20 µM

Source: ChEMBL document CHEMBL1124910, “Inhibition of human leukocyte elastase. 1. Inhibition by C-7-substituted cephalosporin tert-butyl esters” (J Med Chem, 1990)
